Laboratory results taken from patent publication US7022333B2 (priority 2001, dated 2006).

System: S. aureus FRI-1187
Format: cell-based, Staphylococcus aureus

OCCc1ccccc1 [Phenylethyl alcohol, phenylethyl alcohol]
amount of exotoxin production from the FRI-1187 culture: significantly reduced | ELISA: TSST-1 ng/OD unit (0.5% test compound, S. aureus FRI-1187, Example 5): none
